Patent publication US9974792B2, “Methods for treating cancers” (Gilead Sciences, Inc., priority 2013, dated 2018)

How the values were obtained:
[1] = test system: human subjects with CLL; assay: Example 1: investigator assessed nodal response in CLL subjects; format: in vivo; settings: CLL subjects (n=29); 800 mg BID fasting
Text: The sample size was 10-40/arm.

[2] = test system: phosphorylated Btk in CD19+CD5+ circulating tumor cells; assay: Example 1: BCR-mediated signaling, intracellular phosphoprotein flow cytometry; format: in vivo, human; settings: Days 8 and 29 vs Day 1; CLL subjects (n=35)
Text: (§1) Nominal p-values from tests of mean change of Day 8 and 29 from Day 1 using mixed model for repeated measures are <0.0005.

[3] = test system: phosphorylated Syk in CD19+CD5+ circulating tumor cells; assay: as above; format: in vivo, human; settings: Days 8 and 29 vs Day 1; CLL subjects (n=35)
Text: as §1

[4] = test system: CCL3/MIP1alpha, CCL4/MIP1beta, CCL22/MDC, and TNFalpha; assay: Example 1: plasma chemokine/cytokine levels by Luminex immunoassays; format: in vivo, human; settings: Days 8 and 29 vs Day 1; CLL subjects (n=20)
Text: FIG. 9 summarizes the inhibition of BCR-mediated chemokine/cytokines after treatment in CLL subjects.

[5] = test system: subjects with relapsed or refractory CLL
Protocol: The safety and efficacy of entospletinib was tested in a phase 2 trial in separate cohorts of subjects with CLL, indolent non-Hodgkin lymphoma (iNHL), mantle cell lymphoma (MCL), or diffuse large B-cell lymphoma (DLBCL). This trial was registered at www.clinicaltrials.gov as #NCT01799889.
A phase 2, open-label, single-agent study was completed to evaluate the efficacy, safety, tolerability, and pharmacodynamics of entospletinib in subjects with relapsed or refractory hematologic malignancies.
Subjects who were at least 18 years of age with a documented diagnosis of CLL, as established by the International Workshop on CLL, with progressive disease (PD) were eligible for the study. […] The presence of radiographically measurable lymphadenopathy or extranodal lymphoid malignancy as assessed by computed tomography (CT) or magnetic resonance imaging (MRI) was required for enrollment. […] A Karnofsky performance status of at least 60% and a life expectancy of at least 3 months were required. Required screening laboratory data were collected within 5 weeks before administration of study drug. Subjects with any degree of neutropenia, thrombocytopenia, or anemia attributed to the malignancy by the treating physician were eligible to enroll.
Treatment with entospletinib was at a dose of 800 mg twice a day over 28-day cycles under fasted conditions. Fasting was defined as no food or liquids other than water for 2 hours pre- and 1 hour post-dose.
CT or MRI scans were used to document sites of disease, identify target lesions, and assess response and disease progression. […] The findings of an independent review committee were used for analyses of PFS and other tumor control end points.
Secondary end points included tolerability, objective response rate (ORR), duration of response (DOR), time to response, and lymph node response rate. […] Exploratory end points included plasma drug concentrations and pharmacodynamic biomarkers.
PFS was defined as the interval from start of treatment to disease progression or death from any cause and analyzed using Kaplan-Meier methods. The findings of the Independent Review Committee (IRC) were considered primary for analyses of PFS and other tumor control responses. […] DOR was defined as the time from when the first response (CR or PR) was achieved until the earlier of the first documentation of definitive disease progression or death from any cause.

c1cn2cc(-c3ccc4cn[nH]c4c3)nc(Nc3ccc(N4CCOCC4)cc3)c2n1 [compound of formula I, 6-(1H-indazol-6-yl)-N-(4-morpholinophenyl)imidazo[1,2-a]pyrazin-8-amine]
overall nodal response rate [1]: 69%
phosphorylated Btk in CD19+CD5+ circulating tumor cells [2]: downregulation
phosphorylated Syk in CD19+CD5+ circulating tumor cells [3]: downregulation
BCR-mediated chemokine/cytokines, plasma levels [4]: inhibition
DOR exceeded by seventy-five percent of subjects ([5]; 23 responding CLL subjects): > 6.5 months
median DOR ([5]; 23 responding CLL subjects): not yet been reached
subjects achieving at least a 50% decrease in SPD from baseline ([5]; 39 evaluable CLL subjects): 61.5%
subjects achieving reduction in adenopathy ([5]; 39 evaluable CLL subjects): 94.5%
subjects with a less than 50% decrease in SPD from baseline ([5]; 39 evaluable CLL subjects): 33%
Discontinued study drug: AEs, % ([5]; CLL N = 41): (8.8%)
Discontinued study drug: Death, % ([5]; CLL N = 41): (2.4%)
Discontinued study drug: Progressive disease, % ([5]; CLL N = 41): (34.1%)
PFS exceeded by seventy-five percent of the subjects ([5]; CLL cohort): > 5.4 months
death (PFS event), % ([5]; CLL cohort, 41 subjects): 2.4%
subjects with PFS events, % ([5]; CLL cohort, 41 subjects): 31.7%
subjects with disease progression, % ([5]; CLL cohort, 41 subjects): 29.3%
24 weeks PFS (primary end point) ([5]; CLL cohort, 41 subjects, median follow up 5.5 months): 69.8%
Median PFS ([5]; CLL cohort, median follow up 5.5 months): not yet been reached
ORR ([5]; CLL subjects): 56.1%
subjects achieving a CR ([5]; CLL subjects): no subject
subjects achieving a PR ([5]; CLL subjects): 23 subjects
subjects with dose reduced to 400 mg ([5]; CLL subjects): 4.9%
subjects with dose reduced to 600 mg ([5]; CLL subjects): 14.6%
subjects with progressive disease (best response) ([5]; CLL subjects): 2.4%
subjects with stable disease ([5]; CLL subjects): 44%
time for mean absolute lymphocyte count to return to baseline ([5]; CLL subjects): approximately 3 months
nodal response (50% reduction in SPD) with persistent lymphocytosis, % ([5]; CLL subjects with stable disease): 4.9%
nodal response with persistent lymphocytosis, subjects ([5]; CLL subjects, additional to ORR): 2 subjects
subjects requiring at least one dose reduction from the starting dose ([5]; CLL subjects, starting dose 800 mg twice a day): 19.5%
mean absolute lymphocyte count ([5]; day 8, rose from 50,090): 72,980 lymphocytes per microliter
responding subjects with a PR at the first post-baseline evaluation ([5]; of 23 responding subjects, scheduled at week 8): 65.2%
differences in ORR within subgroups ([5]; sex, age, number of prior therapies, IGHV mutation status, 17p deletion/TP53 mutation status): no significant differences
